Assay: Gravimetric vapour sorption (GVS)
Format: physicochemical
Method: Sorption isotherms were obtained using a Hiden Isochema moisture sorption analyser (model IGAsorp), controlled by IGAsorp Systems Software V6.50.48. The sample was maintained at a constant temperature (25° C.) by the instrument controls. The humidity was controlled by mixing streams of dry and wet nitrogen, with a total flow of 250 ml·min-1. The instrument was verified for relative humidity content by measuring three calibrated Rotronic salt solutions (10-50-88%). The weight change of the sample was monitored as a function of humidity by a microbalance (accuracy +/−0.005 mg). A defined amount of sample was placed in a tared mesh stainless steel basket under ambient conditions. A full experimental cycle typically consisted of three scans (sorption, desorption and sorption) at a constant temperature (25° C.) and 10% RH intervals over a 0-90% range (60 minutes for each humidity level).

CN(C)CCNC(=O)c1ccc(-c2ccc(-c3ccc(Cl)cc3)n2-c2ccccc2C(F)(F)F)cc1.O=C(O)C(O)C(O)C(=O)O [Tartrate Pattern B, (R)-4-[5-(4-chlorophenyl)-1-[2-(trifluoromethyl)phenyl]pyrrol-2-yl]-N-[2 (dimethylamino)ethyl]benzamide tartrate]
solid form stability under GVS (0-90% RH cycling, XRPD post GVS): stable solid, only absorbing surface moisture with no change in form
moisture content before the first desorption (GVS, 25° C.): ca. 0.3%
moisture taken up between 80 and 90% RH (GVS, 25° C., 80-90% RH): ca. 0.8%

Source: patent publication US20220348565A1, “PHARMACEUTICAL COMPOUNDS” (SENTINEL ONCOLOGY LIMITED, priority 2019, published 2022)
